Laboratory results reported in PMC7883873, “Discovery of New Catalytic Topoisomerase II Inhibitors for Anticancer Therapeutics” (Frontiers in Oncology, 2021).

Key:
TOP2A (431–1193) = target: T1, TOP2A (431–1193) (Homo sapiens, UniProt P11388); assay: Electrophoresis mobility shift assay (EMSA); type: binding; conditions: 200 µM; 30 µM protein, 300 nM 5ZRF oligo
T1 construct: was incorporated with TOP2A (431–1193); made in house; host or cells: Escherichia coli BL21 co-expressing biotin ligase
Method: EMSA followed the standard protocols as we and others described with minor modifications ([54]–[56]). The double-strand DNA oligo, 5ZRF (AGCCGAGCTGCAGCTCGGCT labeled by IRDye700) was purchased from IDT (Coralville, USA). Human TOP2 (431–1193), TOP2A (TopoGEN) or TOP2B (Inspiralis) proteins were incubated with 300 nM of 5ZRF oligo in a standard 20 µl EMSA reaction in a reaction buffer containing 20 mM HEPES-NaOH, pH 7.4, 2 mM DTT, 3 mM MgCl2, 0.05% NP-40, protease inhibitors, and 0.1 µg poly[dI:dC]. After incubation for 30 min at 37C, reactions were loaded onto 4% non-denatured polyacrylamide gel in 0.5× TBE buffer. The DNA oligo bands were visualized by using the Li-Cor Odyssey 9120 Infrared Imaging System.

HeLa cells = assay: LDH cytotoxicity assay; type: cell-based; conditions: 0–20 µM, 48 h
Method: (§1) Cell proliferation rates were measured by using the CellTitre 96 AqueousOne kit (Promega) and bromodeoxyuridine (BrdU) assay kit (Millipore) according to the manufacturer’s protocol as we have described ([51]). Cytotoxicity was evaluated by using the commercial kit (CAT# 8078, ThermoFisher). Culture media was collected and used to measure lactate dehydrogenase (LDH) levels by a colorimetric method following the manufacture’s protocol (ThermoFisher). Cell cycling was assessed by using BrdU incorporation into S-phase DNA by using the APC BrdU flow kit (BD Pharmingen; Franklin Lakes, New Jersey) according to the manufacturer’s protocol. 1 mM of BrdU was added to cells and incubated for 6 h. Cells were incubated with anti-BrdU antibody and stained with 7-AAD before processing the cells for flow cytometry ([52]). Immunoblotting assays followed the standard protocol as we have reported ([51]–[53]).

[1] = test system: phospho-H2AXγ protein levels in K562 cells; assay: Immunoblotting of phospho-H2AXγ (DNA damage); type: cell-based; conditions: 4 h
Method: as §1

phospho-H2AXγ expression = assay: Phospho-H2AXγ expression in multiple cancer cell models; type: cell-based; conditions: 5 µM, 4 hours
Method: as §1

AR = assay: Probasin- and PSA-luciferase reporter in 293T cells; type: cell-based; conditions: 0-20 µM
[2] = test system: GFP-AR transfected DU145 cells; assay: AR subcellular localization by microscopy; type: cell-based; conditions: 20 µM, 24 h
TOP2B [3] = target: T2, TOP2B (Homo sapiens, UniProt Q02880); assay: DNA cleavage assay; type: biochemical; design: full-length human TOP2A and TOP2B protein (TopoGEN and Inspiralis respectively); purchased Inspiralis HTB205; conditions: co-treatment with 200 µM etoposide; 1, 100, 200 µM
Method: The reactions were incubated in 37C for 30 min and stopped by adding 2 µl of 10% SDS and 1 µl of 250 mM of EDTA, followed by the addition of 50 µg/ml of proteinase K at 45C for 30 min. The reaction was then resolved by electrophoresis on a 1% agarose gel containing […] ethidium bromide in TAE buffer at 60 V. DNA bands were visualized using a gel imager (Gel Doc™ EZ System) and quantified by using the Image Studio™ Lite Quantification Software.
Target sequence in this assay (Q02880 whole entry): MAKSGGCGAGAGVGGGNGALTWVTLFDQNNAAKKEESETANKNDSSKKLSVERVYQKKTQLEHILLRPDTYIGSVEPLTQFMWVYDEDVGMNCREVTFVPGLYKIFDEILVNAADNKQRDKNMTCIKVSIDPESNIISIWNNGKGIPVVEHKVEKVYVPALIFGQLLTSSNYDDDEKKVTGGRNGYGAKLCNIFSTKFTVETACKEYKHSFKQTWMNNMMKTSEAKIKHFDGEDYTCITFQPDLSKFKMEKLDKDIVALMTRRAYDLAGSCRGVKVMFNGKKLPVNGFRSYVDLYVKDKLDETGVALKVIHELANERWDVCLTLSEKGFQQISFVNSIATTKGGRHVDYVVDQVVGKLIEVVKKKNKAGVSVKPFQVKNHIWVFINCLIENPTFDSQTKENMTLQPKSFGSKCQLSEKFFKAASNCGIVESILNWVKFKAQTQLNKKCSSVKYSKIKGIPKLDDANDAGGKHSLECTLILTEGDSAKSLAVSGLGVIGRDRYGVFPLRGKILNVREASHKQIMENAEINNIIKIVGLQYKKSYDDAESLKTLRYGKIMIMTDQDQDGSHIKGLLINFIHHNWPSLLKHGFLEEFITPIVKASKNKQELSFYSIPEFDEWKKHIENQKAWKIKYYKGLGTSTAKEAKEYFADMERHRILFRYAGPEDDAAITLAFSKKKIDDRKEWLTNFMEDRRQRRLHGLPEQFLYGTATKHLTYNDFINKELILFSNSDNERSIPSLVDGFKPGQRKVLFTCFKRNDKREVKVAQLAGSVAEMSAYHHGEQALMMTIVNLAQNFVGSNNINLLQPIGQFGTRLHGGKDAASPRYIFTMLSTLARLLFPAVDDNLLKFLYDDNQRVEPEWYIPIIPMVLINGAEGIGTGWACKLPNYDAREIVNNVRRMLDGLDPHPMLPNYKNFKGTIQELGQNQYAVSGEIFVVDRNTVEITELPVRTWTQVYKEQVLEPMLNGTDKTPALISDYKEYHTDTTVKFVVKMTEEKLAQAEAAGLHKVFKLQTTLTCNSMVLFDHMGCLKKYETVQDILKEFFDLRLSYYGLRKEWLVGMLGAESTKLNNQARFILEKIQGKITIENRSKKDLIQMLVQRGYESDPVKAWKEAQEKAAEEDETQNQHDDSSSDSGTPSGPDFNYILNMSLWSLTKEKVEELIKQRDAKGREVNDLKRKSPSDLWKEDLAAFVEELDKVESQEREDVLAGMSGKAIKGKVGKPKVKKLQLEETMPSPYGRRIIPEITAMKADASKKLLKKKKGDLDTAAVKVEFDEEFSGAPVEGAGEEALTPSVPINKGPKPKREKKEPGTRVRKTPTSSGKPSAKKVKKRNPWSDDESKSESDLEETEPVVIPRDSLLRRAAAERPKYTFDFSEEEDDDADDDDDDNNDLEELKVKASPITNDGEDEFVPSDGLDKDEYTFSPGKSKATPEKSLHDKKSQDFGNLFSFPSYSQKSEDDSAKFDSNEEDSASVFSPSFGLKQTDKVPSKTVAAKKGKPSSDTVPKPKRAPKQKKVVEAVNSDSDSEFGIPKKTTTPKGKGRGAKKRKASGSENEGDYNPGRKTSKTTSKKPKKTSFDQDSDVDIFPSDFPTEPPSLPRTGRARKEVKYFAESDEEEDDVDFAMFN

TOP2A [4] = target: T3, TOP2A (Homo sapiens, UniProt P11388); assay: K-DNA decatenation assay; type: biochemical; design: full-length human TOP2A and TOP2B protein (TopoGEN and Inspiralis respectively); purchased TopoGEN TG1001 (human TOP2 assay kit)
Method: The human TOP2 assay kit (#TG1001, TopoGEN, Buena Vista, CO) and TOP2B (HTB205, Inspiralis, UK) were used for K-DNA decatenation assays. […] The reaction was incubated at 37C for 2 h after which 4 µl stop solution (5× buffer is 5% Sarkosyl, 0.125% bromophenol blue, 25% glycerol) was added. The reaction was resolved by electrophoresis on a 0.8% agarose gel at 60 V and stained with 0.5 µg/ml ethidium bromide for 15 min. DNA bands were visualized using a gel imager (Gel Doc™ EZ System) and quantified using the Image Studio™ Lite Quantification Software.

TOP2A [5] = target: T3, TOP2A; assay: Cellular thermal shift assay; type: cell-based; design: endogenous in cells; host or cells: K562 (the thermal shift text says HeLa, the legend says K562); K562 for chromatin fractionation; conditions: 20 µM; vehicle 40C; Hela cells
Method: (§2) In the thermal shift assays, cells were treated with vehicle or T60 for 1 h and split into equal aliquots to be heated at 37 to 46°. Protein lyses were collected to perform immunoblotting assays with TOP2 antibodies (Abcam 12318, Santa Cruz sc-13059 & sc-365071). Our chromatin fractionation assays followed the protocol as previously described (Méndez & Stillman, 2000; Wysocka, Reilly, & Herr, 2001). Briefly, K562 cells (4 × 10 ([7]) cells/ml) were collected and re-suspended in buffer A (10 mM HEPES [pH 7.9], 10 mM KCl, 1.5 mM MgCl2, 0.34 M sucrose, 10% glycerol, 1 mM DTT, and protease inhibitor cocktail), before Triton X-100 was added to final concentration at 0.1%. Cells were then incubated on ice for 10 min, and nuclei were collected by centrifugation at speed of 1,300g for 4 min at 4°C. The nuclei were then washed once with buffer A and then incubated with buffer B (3 mM EDTA, 0.2 mM EGTA, 1 mM DTT, and protease inhibitor cocktail [ROCHE]) for 30 min in ice. Insoluble chromatin was collected by centrifugation at 1,700g for 4 min at 4°C, and washed once with buffer B. Chromatin associated proteins were extracted by incubation with Buffer C [500 mM Tris-HCl (pH 6.8), 500 mM NaCl, and protease inhibitor cocktail (ROCHE)] followed by brief sonication. The supernatant was collected to perform immunoblotting assays with TOP2 antibodies as we have described ([51]–[53]).

TOP2B [6] = target: T2, TOP2B; assay: Cellular thermal shift assay; type: cell-based; design: endogenous in cells; host or cells: K562 (the thermal shift text says HeLa, the legend says K562); K562 for chromatin fractionation; conditions: 20 µM; vehicle 40C; Hela cells
Method: as §2
Target sequence in this assay (Q02880 2-1626 limits assumed): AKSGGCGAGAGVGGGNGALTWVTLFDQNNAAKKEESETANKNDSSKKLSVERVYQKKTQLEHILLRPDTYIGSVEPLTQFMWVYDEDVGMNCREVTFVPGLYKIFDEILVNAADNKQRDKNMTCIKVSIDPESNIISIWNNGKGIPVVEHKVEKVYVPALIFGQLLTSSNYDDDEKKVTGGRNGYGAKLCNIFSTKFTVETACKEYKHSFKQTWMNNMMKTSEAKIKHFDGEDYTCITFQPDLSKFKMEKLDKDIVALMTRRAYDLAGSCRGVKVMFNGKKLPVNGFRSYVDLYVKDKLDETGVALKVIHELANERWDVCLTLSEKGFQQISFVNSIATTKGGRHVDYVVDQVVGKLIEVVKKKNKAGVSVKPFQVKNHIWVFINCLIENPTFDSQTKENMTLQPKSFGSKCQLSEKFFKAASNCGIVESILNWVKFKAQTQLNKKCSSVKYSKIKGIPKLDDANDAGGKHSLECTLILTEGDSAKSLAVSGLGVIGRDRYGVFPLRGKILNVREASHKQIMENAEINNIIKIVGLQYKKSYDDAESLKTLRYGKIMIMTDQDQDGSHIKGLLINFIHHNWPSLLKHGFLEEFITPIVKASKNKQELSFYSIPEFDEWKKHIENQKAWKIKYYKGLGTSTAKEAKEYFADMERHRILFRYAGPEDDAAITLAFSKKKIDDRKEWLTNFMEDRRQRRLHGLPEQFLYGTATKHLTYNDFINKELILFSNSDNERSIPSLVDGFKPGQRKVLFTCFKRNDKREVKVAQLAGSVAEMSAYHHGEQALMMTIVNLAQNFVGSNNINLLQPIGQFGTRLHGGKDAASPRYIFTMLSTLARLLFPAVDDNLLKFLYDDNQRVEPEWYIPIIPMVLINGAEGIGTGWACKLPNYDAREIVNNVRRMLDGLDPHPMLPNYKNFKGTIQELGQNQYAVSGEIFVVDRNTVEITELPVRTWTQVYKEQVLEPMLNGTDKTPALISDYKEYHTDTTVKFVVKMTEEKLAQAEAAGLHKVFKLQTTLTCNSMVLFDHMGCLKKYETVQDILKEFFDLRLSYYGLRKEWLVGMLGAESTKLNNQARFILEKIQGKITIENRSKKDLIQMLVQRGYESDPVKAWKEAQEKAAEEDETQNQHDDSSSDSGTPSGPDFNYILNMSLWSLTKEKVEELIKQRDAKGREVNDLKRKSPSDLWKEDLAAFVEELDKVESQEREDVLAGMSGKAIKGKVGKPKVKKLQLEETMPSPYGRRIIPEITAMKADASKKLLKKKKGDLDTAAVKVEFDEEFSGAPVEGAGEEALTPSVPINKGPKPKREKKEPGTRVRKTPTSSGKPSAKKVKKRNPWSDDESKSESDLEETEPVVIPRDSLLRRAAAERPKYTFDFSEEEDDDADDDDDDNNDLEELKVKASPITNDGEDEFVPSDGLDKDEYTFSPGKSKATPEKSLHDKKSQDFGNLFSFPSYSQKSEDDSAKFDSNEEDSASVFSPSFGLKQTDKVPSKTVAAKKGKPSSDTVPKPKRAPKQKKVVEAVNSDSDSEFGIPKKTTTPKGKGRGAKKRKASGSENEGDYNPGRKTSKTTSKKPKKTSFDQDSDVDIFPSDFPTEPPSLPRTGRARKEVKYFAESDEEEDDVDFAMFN

T3 sequence (P11388 whole entry): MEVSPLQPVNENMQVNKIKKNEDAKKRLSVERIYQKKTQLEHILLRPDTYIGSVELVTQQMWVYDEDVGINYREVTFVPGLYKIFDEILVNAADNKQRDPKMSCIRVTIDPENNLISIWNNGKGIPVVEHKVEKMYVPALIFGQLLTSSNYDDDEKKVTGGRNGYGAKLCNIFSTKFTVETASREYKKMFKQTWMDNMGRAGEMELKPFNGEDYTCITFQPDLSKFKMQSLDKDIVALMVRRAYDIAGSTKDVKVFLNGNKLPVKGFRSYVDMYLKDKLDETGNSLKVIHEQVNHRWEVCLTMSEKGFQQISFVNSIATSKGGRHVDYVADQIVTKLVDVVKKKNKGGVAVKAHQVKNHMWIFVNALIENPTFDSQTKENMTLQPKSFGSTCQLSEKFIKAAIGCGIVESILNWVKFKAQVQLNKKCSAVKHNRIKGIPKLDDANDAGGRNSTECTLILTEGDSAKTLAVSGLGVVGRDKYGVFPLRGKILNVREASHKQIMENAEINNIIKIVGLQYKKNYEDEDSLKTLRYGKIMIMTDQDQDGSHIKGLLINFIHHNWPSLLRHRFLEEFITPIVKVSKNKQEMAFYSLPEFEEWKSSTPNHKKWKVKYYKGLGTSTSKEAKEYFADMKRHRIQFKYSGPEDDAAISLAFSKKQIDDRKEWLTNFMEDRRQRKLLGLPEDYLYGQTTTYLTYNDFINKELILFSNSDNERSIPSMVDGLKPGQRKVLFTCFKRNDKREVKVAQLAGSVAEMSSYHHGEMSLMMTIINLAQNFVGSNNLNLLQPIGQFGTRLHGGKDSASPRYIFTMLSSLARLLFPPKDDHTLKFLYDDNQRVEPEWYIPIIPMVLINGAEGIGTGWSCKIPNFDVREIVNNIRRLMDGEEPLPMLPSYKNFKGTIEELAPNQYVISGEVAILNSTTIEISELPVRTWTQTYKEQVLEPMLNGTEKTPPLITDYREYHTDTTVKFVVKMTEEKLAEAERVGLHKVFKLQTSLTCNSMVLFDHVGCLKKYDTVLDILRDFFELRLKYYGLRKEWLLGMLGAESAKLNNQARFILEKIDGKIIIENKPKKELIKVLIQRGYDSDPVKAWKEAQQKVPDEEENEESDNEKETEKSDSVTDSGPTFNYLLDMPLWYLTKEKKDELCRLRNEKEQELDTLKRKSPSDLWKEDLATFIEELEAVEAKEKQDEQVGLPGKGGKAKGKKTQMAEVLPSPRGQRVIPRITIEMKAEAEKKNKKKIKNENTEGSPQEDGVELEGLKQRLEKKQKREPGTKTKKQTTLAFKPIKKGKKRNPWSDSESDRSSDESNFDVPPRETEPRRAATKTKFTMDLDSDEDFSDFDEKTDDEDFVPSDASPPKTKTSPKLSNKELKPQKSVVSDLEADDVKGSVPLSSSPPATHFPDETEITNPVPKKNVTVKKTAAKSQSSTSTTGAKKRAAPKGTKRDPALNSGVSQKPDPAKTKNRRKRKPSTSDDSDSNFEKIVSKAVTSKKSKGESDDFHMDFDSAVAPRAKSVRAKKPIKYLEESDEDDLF

SMILES: O=C(Nc1ccc(Nc2ccccc2)cc1)c1ccc[nH]c1=S [T60]
- Abolishment of TOP2A (431–1193)-induced upshifted DNA band (TOP2A (431–1193)): abolished
- Cytotoxicity (LDH release) (HeLa cells): low cytotoxicity
- Effect on etoposide-induced phospho-H2AXγ protein levels ([1]; 20 µM, co-treated with 10–20 µM etoposide): inhibited etoposide-induced phospho-H2AXγ protein levels
- Intracellular DNA damage (phospho-H2AXγ protein levels) ([1]; 10–20 µM): did not cause intracellular DNA damage
- DNA damage (phospho-H2AXγ expression) in all cell models (phospho-H2AXγ expression): not accompanied by DNA damage
- Luciferase activities driven by probasin and PSA promoters, AR (AR): inhibited luciferase activities
- Nuclear localization of GFP-AR, DU145 [2]: reduced nuclear localization
- Prevention of etoposide-induced DNA cleavage, TOP2B (TOP2B [3]): prevented
- Inhibition of TOP2A mediated K-DNA decatenation (TOP2A [4]; Figure 3A): inhibited
- IC50 (TOP2A [4]; densitometry of D-DNA bands, read-out: IC50, inhibition of TOP2A K-DNA decatenation): ~300 nM
- Temperature up to which TOP2A protein is stabilized (TOP2A [5]): up to 43 C
- Temperature up to which TOP2B protein is stabilized (TOP2B [6]): up to 43 C
